From ChEMBL document CHEMBL2434921, “New synthetic aliphatic sulfonamido-quaternary ammonium salts as anticancer chemotherapeutic agents” (2013)
Activity calls are given as the source filed them. No cut-off for these calls is given here.

What was measured:
NUGC-3 [1] = assay: Growth inhibition of human NUGC3 cells at 10 uM after 48 hrs by SRB assay; values are per cent of control; conditions: NUGC-3, 48 h
MDA-MB-231 [2] = assay: Growth of human MDA-MB-231 cells at 1 uM after 48 hrs by SRB assay; conditions: MDA-MB-231, 48 h
NCI-H23 [3] = assay: Growth inhibition of human NCI-H23 cells after 48 hrs by SRB assay; assay type: functional; conditions: NCI-H23, 48 h
MDA-MB-231 [4] = assay: Growth of human MDA-MB-231 cells at 10 uM after 48 hrs by SRB assay; conditions: MDA-MB-231, 48 h
ACHN [5] = assay: Growth inhibition of human ACHN cells at 3 uM after 48 hrs by SRB assay; values are per cent of control
ACHN [6] = assay: Growth of human ACHN cells at 0.1 uM after 48 hrs by SRB assay
MDA-MB-231 [7] = assay: Growth inhibition of human MDA-MB-231 cells after 48 hrs by SRB assay; assay type: functional; conditions: MDA-MB-231, 48 h
NUGC-3 [8] = assay: Growth of human NUGC3 cells at 0.3 uM after 48 hrs by SRB assay; conditions: NUGC-3, 48 h
NUGC-3 [9] = assay: Growth inhibition of human NUGC3 cells at 3 uM after 48 hrs by SRB assay; values are per cent of control; conditions: NUGC-3, 48 h
NUGC-3 [10] = assay: Growth of human NUGC3 cells at 0.1 uM after 48 hrs by SRB assay; conditions: NUGC-3, 48 h
HCT-15 [11] = assay: Growth inhibition of human HCT15 cells after 48 hrs by SRB assay; assay type: functional; conditions: HCT-15, 48 h
NCI-H23 [12] = assay: Growth of human NCI-H23 cells at 0.3 uM after 48 hrs by SRB assay; conditions: NCI-H23, 48 h
HCT-15 [13] = assay: Growth of human HCT15 cells at 3 uM after 48 hrs by SRB assay; conditions: HCT-15, 48 h
NCI-H23 [14] = assay: Growth inhibition of human NCI-H23 cells at 0.1 uM after 48 hrs by SRB assay; values are per cent of control; conditions: NCI-H23, 48 h
HCT-15 [15] = assay: Growth of human HCT15 cells at 0.3 uM after 48 hrs by SRB assay; conditions: HCT-15, 48 h
NCI-H23 [16] = assay: Growth inhibition of human NCI-H23 cells at 1 uM after 48 hrs by SRB assay; values are per cent of control; conditions: NCI-H23, 48 h
ACHN [17] = assay: Growth inhibition of human ACHN cells at 1 uM after 48 hrs by SRB assay; values are per cent of control
MDA-MB-231 [18] = assay: Growth of human MDA-MB-231 cells at 0.1 uM after 48 hrs by SRB assay; conditions: MDA-MB-231, 48 h
HCT-15 [19] = assay: Growth inhibition of human HCT15 cells at 1 uM after 48 hrs by SRB assay; values are per cent of control; conditions: HCT-15, 48 h
NCI-H23 [20] = assay: Growth inhibition of human NCI-H23 cells at 3 uM after 48 hrs by SRB assay; values are per cent of control; conditions: NCI-H23, 48 h
NUGC-3 [21] = assay: Growth inhibition of human NUGC3 cells after 48 hrs by SRB assay; assay type: functional; conditions: NUGC-3, 48 h
MDA-MB-231 [22] = assay: Growth of human MDA-MB-231 cells at 3 uM after 48 hrs by SRB assay; values are per cent of control; conditions: MDA-MB-231, 48 h
PC-3 [23] = assay: Growth inhibition of human PC3 cells at 3 uM after 48 hrs by SRB assay; values are per cent of control; conditions: PC-3, 48 h
PC-3 [24] = assay: Growth of human PC3 cells at 10 uM after 48 hrs by SRB assay; conditions: PC-3, 48 h
PC-3 [25] = assay: Growth inhibition of human PC3 cells at 0.3 uM after 48 hrs by SRB assay; values are per cent of control; conditions: PC-3, 48 h
[26] = target: Rho-related GTP-binding protein RhoB (Homo sapiens) (UniProt P62745); assay: Transactivation of RhoB (unknown origin) transfected in human HeLa cells at 5 uM measured over 10 secs by dual luciferase reporter gene assay; assay type: cell-based
PC-3 [27] = assay: Growth inhibition of human PC3 cells at 1 uM after 48 hrs by SRB assay; values are per cent of control; conditions: PC-3, 48 h
PC-3 [28] = assay: Growth inhibition of human PC3 cells after 48 hrs by SRB assay; assay type: functional; conditions: PC-3, 48 h
HCT-15 [29] = assay: Growth inhibition of human HCT15 cells at 0.1 uM after 48 hrs by SRB assay; values are per cent of control; conditions: HCT-15, 48 h
NUGC-3 [30] = assay: Growth of human NUGC3 cells at 1 uM after 48 hrs by SRB assay; conditions: NUGC-3, 48 h
ACHN [31] = assay: Growth inhibition of human ACHN cells after 48 hrs by SRB assay; assay type: functional
HCT-15 [32] = assay: Growth inhibition of human HCT15 cells at 10 uM after 48 hrs by SRB assay; values are per cent of control; conditions: HCT-15, 48 h
NCI-H23 [33] = assay: Growth of human NCI-H23 cells at 10 uM after 48 hrs by SRB assay; conditions: NCI-H23, 48 h
PC-3 [34] = assay: Growth inhibition of human PC3 cells at 0.1 uM after 48 hrs by SRB assay; values are per cent of control; conditions: PC-3, 48 h
ACHN [35] = assay: Growth of human ACHN cells at 10 uM after 48 hrs by SRB assay
MDA-MB-231 [36] = assay: Growth inhibition of human MDA-MB-231 cells at 0.3 uM after 48 hrs by SRB assay; values are per cent of control; conditions: MDA-MB-231, 48 h
ACHN [37] = assay: Growth of human ACHN cells at 0.3 uM after 48 hrs by SRB assay

Chain of Rho-related GTP-binding protein RhoB (Homo sapiens) (P62745 whole entry): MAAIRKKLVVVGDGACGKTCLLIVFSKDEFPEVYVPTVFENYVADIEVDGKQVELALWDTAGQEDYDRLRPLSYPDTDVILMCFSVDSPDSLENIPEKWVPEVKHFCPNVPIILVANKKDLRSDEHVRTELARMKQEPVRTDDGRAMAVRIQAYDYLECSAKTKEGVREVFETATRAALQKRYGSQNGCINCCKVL

| SMILES | growth, % of control at 10 µM (NUGC-3 [1]) [%] | growth, % of control at 1 µM (MDA-MB-231 [2]) [%] | GI50 (NCI-H23 [3]) [nM] | growth, % of control at 10 µM (MDA-MB-231 [4]) [%] | growth, % of control at 3 µM (ACHN [5]) [%] | growth, % of control at 0.1 µM (ACHN [6]) [%] | GI50 (MDA-MB-231 [7]) [nM] | growth, % of control at 0.3 µM (NUGC-3 [8]) [%] | growth, % of control at 3 µM (NUGC-3 [9]) [%] | growth, % of control at 0.1 µM (NUGC-3 [10]) [%] | GI50 (HCT-15 [11]) [nM] | growth, % of control at 0.3 µM (NCI-H23 [12]) [%] | growth, % of control at 3 µM (HCT-15 [13]) [%] | growth, % of control at 0.1 µM (NCI-H23 [14]) [%] | growth, % of control at 0.3 µM (HCT-15 [15]) [%] | growth, % of control at 1 µM (NCI-H23 [16]) [%] | growth, % of control at 1 µM (ACHN [17]) [%] | growth, % of control at 0.1 µM (MDA-MB-231 [18]) [%] | growth, % of control at 1 µM (HCT-15 [19]) [%] | growth, % of control at 3 µM (NCI-H23 [20]) [%] | other results |
| --- | --- | --- | --- | --- | --- | --- | --- | --- | --- | --- | --- | --- | --- | --- | --- | --- | --- | --- | --- | --- | --- |
| C=CC[N+](CC)(CC)CCN(C)S(=O)(=O)CCCCCCCCCCCCCCCC | -20.2 | 80.6 | 450 | 9.2 | 50.4 | 85.9 | 1340 | 86.6 | 4.9 | 89.1 | 1810 | 78.4 | 66.6 | 77.9 | 90.7 | 51.3 | 82.2 | 94.8 | 84 | 16.9 | GI50 (NUGC-3 [21]): 390 nM; growth, % of control at 3 µM (MDA-MB-231 [22]): 42.9%; growth, % of control at 3 µM (PC-3 [23]): 10%; growth, % of control at 10 µM (PC-3 [24]): -13.2%; growth, % of control at 0.3 µM (PC-3 [25]): 91%; Activity [26]: Active; growth, % of control at 1 µM (PC-3 [27]): 73.3%; GI50 (PC-3 [28]): 760 nM; growth, % of control at 0.1 µM (HCT-15 [29]): 87.9%; growth, % of control at 1 µM (NUGC-3 [30]): 34.9%; GI50 (ACHN [31]): 1450 nM; growth, % of control at 10 µM (HCT-15 [32]): -7%; growth, % of control at 10 µM (NCI-H23 [33]): -7.6%; growth, % of control at 0.1 µM (PC-3 [34]): 88.2%; growth, % of control at 10 µM (ACHN [35]): -11.8%; growth, % of control at 0.3 µM (MDA-MB-231 [36]): 97%; growth, % of control at 0.3 µM (ACHN [37]): 88.2% |
| C=CC[N+](C)(C)CCN(C)S(=O)(=O)CCCCCCCCCCCCCCCC | 9.4 | 86.5 | 890 | 18.4 | 69.3 | 135 | 1350 | 105 | 20.9 | 108 | 4730 | 96.2 | 76.5 | 101 | 101 | 69.8 | 112 | 108 | 97.2 | 30.9 | GI50 (NUGC-3 [21]): 760 nM; growth, % of control at 3 µM (MDA-MB-231 [22]): 39.4%; growth, % of control at 3 µM (PC-3 [23]): 10.1%; growth, % of control at 10 µM (PC-3 [24]): -4.8%; growth, % of control at 0.3 µM (PC-3 [25]): 95.9%; Activity [26]: Active; growth, % of control at 1 µM (PC-3 [27]): 61.8%; GI50 (PC-3 [28]): 620 nM; growth, % of control at 0.1 µM (HCT-15 [29]): 100%; growth, % of control at 1 µM (NUGC-3 [30]): 65.5%; GI50 (ACHN [31]): 3480 nM; growth, % of control at 10 µM (HCT-15 [32]): 48.7%; growth, % of control at 10 µM (NCI-H23 [33]): 2.5%; growth, % of control at 0.1 µM (PC-3 [34]): 99.9%; growth, % of control at 10 µM (ACHN [35]): 38.6%; growth, % of control at 0.3 µM (MDA-MB-231 [36]): 104%; growth, % of control at 0.3 µM (ACHN [37]): 130% |
